Measured values published in patent publication US12115208B2, “Small-molecule adjuvants for antibiotics to address antibiotic resistance” (HIGH POINT UNIVERSITY, priority 2017, dated 2024).
Read-outs that look alike come from different tables or passages of the source.

Key:
S. aureus USA300 (MRSA) [1] = assay: Minimum inhibitory concentration, broth microdilution; assay type: cell-based, Staphylococcus aureus; settings: 18 h
Procedure: (§1) The compounds were then analyzed for antibiotic repotentiation activity. […] The tested strains included USA300, which is a common and particularly virulent strain of community-acquired MRSA.

[2] = tested on: S. aureus ATCC 43300 (MRSA); assay: as above; assay type: cell-based, Staphylococcus aureus; settings: 18 h
Procedure: as §1

S. aureus 43300 (MRSA) = assay: Antibiotic repotentiation (antibiotic MIC with/without compound); assay type: cell-based, Staphylococcus aureus
Procedure: (§2) The overnight culture was diluted into fresh CAMHB to a concentration of 5×10^5 CFU/ml. […] On the same plate, a standard microdilution MIC with the tested antibiotics and no added compound was also performed to compare the antibiotic MIC in the presence and absence of compound. […] Fold reductions were calculated by dividing the MIC of the antibiotic without compound by the MIC of the antibiotic in the presence of compound.
as §1

S. aureus ATCC 29213 = assay: Minimum inhibitory concentration, broth microdilution; assay type: cell-based; settings: Staphylococcus aureus
Procedure: as §1

[3] = tested on: S. epidermidis ATCC 49461 biofilm; assay: Biofilm inhibition, crystal violet assay; assay type: cell-based, Staphylococcus epidermidis; settings: read-out: Inhibition of biofilm formation IC50
Procedure: (§3) A standard static crystal violet assay was used to quantify biofilm inhibition.^45 Cultures of S. aureus or S. epidermidis were grown overnight in TSBG (tryptic soy broth with 5% glucose) at 37° C. with shaking. These cultures were used to inoculate fresh TSBG to a calculated optical density of 0.01 at 600 nm (OD600). […] Untreated aliquots were used as a positive control and water served as a negative control. 100 μl of these suspensions were added to the wells of a 96-well polyvinylchloride microtiter plate. […] After incubation, media was discarded and the plates were washed with water to remove non-adherent cells. Adherent biofilms were stained with 110 μl of crystal violet (0.1% in water) and incubated at room temperature for thirty minutes. The crystal violet staining solution was discarded and plates were washed with water to remove excess stain. The resulting stained biofilms were solubilized with 200 μL of 95% ethanol for 10 minutes. 125 μl of the ethanol solutions were transferred to a clear polystyrene microtiter plate for evaluation. Absorbance at 540 nm was recorded using a BioTek Synergy H1 microplate reader. The absorbance of the negative control lanes was subtracted from the experimental values to account for background staining. Percent inhibition was calculated by comparison of the absorbance values of control versus treated wells under identical conditions.

MRSA 43300 biofilm = assay: Biofilm inhibition, crystal violet assay; assay type: cell-based, Staphylococcus aureus; settings: 30 h
Procedure: as §3
Antibiotic resistance and biofilm formation share similar regulatory mechanisms. […] Biofilm inhibition was first assessed in S. aureus 43300, a methicillin-resistant strain (see Table 18). As described in Materials and Methods, a standard crystal violet assay was used to assess biofilm inhibition by the tested compounds. The IC50 is described as the compound concentration required to inhibit 50% of biofilm formation. The standard deviation is calculated from at least 3 independent experiments.

S. aureus USA100 (MRSA) [4] = assay: Antibiotic repotentiation (antibiotic MIC with/without compound); assay type: cell-based, Staphylococcus aureus
Procedure: as §2

[5] = tested on: S. aureus NR-49120 (VRSA); assay: as above; assay type: cell-based, Staphylococcus aureus; settings: VRSA NR-49120; for Fold Reduction: antibiotic MIC
Procedure: as §2

S. aureus USA300 (MRSA) [6] = assay: as above; assay type: cell-based, Staphylococcus aureus; settings: for MIC of antibiotic: MRSA USA300; for Oxacillin MIC / Fold Reduction: +50 μM compound, S. aureus USA300 (MRSA); for Fold Reduction: oxacillin MIC
Procedure: as §2, §1

S. aureus USA100 (MRSA) [7] = assay: microbe, parasite or virus in culture; assay type: cell-based, Staphylococcus aureus; settings: compound alone, CAMHB, 18 h
S. epidermidis 49461 = assay: Antibiotic repotentiation (oxacillin MIC with/without compound); assay type: cell-based, Staphylococcus epidermidis; settings: +75 μM compound, S. epidermidis 49461
Procedure: as §2
Antibiotic potentiation in S. epidermidis was also investigated.

[8] = oxacillin MIC, +75 μM compound, S. aureus 43300 (MRSA)
[9] = oxacillin MIC, +150 μM compound, S. aureus 43300 (MRSA)
[10] = compound alone, S. aureus ATCC 43300 (MRSA), CAMHB, read-out: MIC
[11] = antibiotic MIC, +Loratadine 25 μM, MRSA USA100
[12] = antibiotic MIC, +Loratadine 50 μM, MRSA USA100
[13] = +Amoxapine (150 μM), S. aureus 43300 (MRSA)
[14] = antibiotic MIC, +Amoxapine (150 μM), S. aureus 43300 (MRSA)
[15] = antibiotic MIC, +Loratadine 25 μM, MRSA 43300
[16] = antibiotic MIC, +Loratadine 50 μM, MRSA 43300
[17] = antibiotic alone, no compound, S. aureus 43300 (MRSA)
[18] = antibiotic alone, S. aureus ATCC 43300 (MRSA)
[19] = compound alone, S. aureus USA300 (MRSA), CAMHB, read-out: MIC
[20] = +50 μM compound, S. aureus USA100 (MRSA)
[21] = oxacillin MIC, +50 μM compound, S. aureus USA100 (MRSA)
[22] = +50 μM compound, S. aureus 43300 (MRSA)
[23] = oxacillin MIC, +50 μM compound, S. aureus 43300 (MRSA)

Cc1cc2c(s1)Nc1ccccc1N=C2N1CCN(C)CC1 [Olanzapine, reference compound]
MIC (S. aureus USA300 (MRSA) [1]; Staphylococcus aureus): 600 µM | MIC ([2]; Staphylococcus aureus): 600 µM | Fold Reduction (S. aureus 43300 (MRSA); [8]): 1 | Fold Reduction (S. aureus 43300 (MRSA); [9]): 1 | MIC (S. aureus ATCC 29213; ATCC29213, 18 h): 600 µM

Clc1cc2cccnc2c2ncccc12 [Compound V-6]
MIC [2, 10]: 125 µM | IC50 ([3]; 30 h): 57.1 µM | Oxacillin MIC (S. aureus 43300 (MRSA); +31.25 μM compound, S. aureus 43300 (MRSA)): 4 µg/mL | Fold Reduction (S. aureus 43300 (MRSA); oxacillin MIC, +31.25 μM compound, S. aureus 43300 (MRSA)): 8 | IC50 (MRSA 43300 biofilm): 184 µM

Cc1nnc(SCC2=C(C(=O)O)N3C(=O)[C@@H](NC(=O)Cn4cnnn4)[C@H]3SC2)s1 [Cefazolin]
MIC of antibiotic (S. aureus USA100 (MRSA) [4]; +Loratadine 25 μM, MRSA USA100): 128 µg/mL | MIC of antibiotic (S. aureus USA100 (MRSA) [4]; +Loratadine 50 μM, MRSA USA100): 1 µg/mL | Fold Reduction (S. aureus USA100 (MRSA) [4]; [11]): 2 | Fold Reduction (S. aureus USA100 (MRSA) [4]; [12]): 256 | MIC of antibiotic (S. aureus USA100 (MRSA) [4]; antibiotic alone, MRSA USA100): 256 µg/mL | MIC of antibiotic ([5]; +Loratadine 25 μM): 32 µg/mL | MIC of antibiotic ([5]; +Loratadine 50 μM): 8 µg/mL | Fold Reduction ([5]; +Loratadine 25 μM): 4 | Fold Reduction ([5]; +Loratadine 50 μM): 16 | MIC of antibiotic ([5]; antibiotic alone): 128 µg/mL | MIC of antibiotic (S. aureus USA300 (MRSA) [6]; +Loratadine 25 μM): 4 µg/mL | MIC of antibiotic (S. aureus USA300 (MRSA) [6]; +Loratadine 50 μM): 1 µg/mL | MIC of antibiotic (S. aureus USA300 (MRSA) [6]; antibiotic alone): 32 µg/mL | MIC of antibiotic (S. aureus 43300 (MRSA); [13]): 0.5 µg/mL | MIC of antibiotic (S. aureus 43300 (MRSA); +Loratadine 25 μM, MRSA 43300): 16 µg/mL | MIC of antibiotic (S. aureus 43300 (MRSA); +Loratadine 50 μM, MRSA 43300): 1 µg/mL | Fold Reduction (S. aureus 43300 (MRSA); [14]): 32 | Fold Reduction (S. aureus 43300 (MRSA); [15]): 4 | Fold Reduction (S. aureus 43300 (MRSA); [16]): 64 | MIC of antibiotic (S. aureus 43300 (MRSA); [17]): 16 µg/mL | MIC of antibiotic (S. aureus 43300 (MRSA); [18]): 64 µg/mL

Brc1ccc2[nH]c3ccc(Br)cc3c2c1 [IV-5]
MIC (S. aureus USA300 (MRSA) [1]; [19]): >200 µM | MIC [2, 10]: >200 µM | Oxacillin MIC (S. aureus USA100 (MRSA) [4]; [20]): 4 µg/mL | Fold Reduction (S. aureus USA100 (MRSA) [4]; [21]): 128 | MIC (S. aureus USA100 (MRSA) [7]): >200 µM | Oxacillin MIC (S. aureus USA300 (MRSA) [6]): 32 µg/mL | Fold Reduction (S. aureus USA300 (MRSA) [6]): 2 | Oxacillin MIC (S. aureus 43300 (MRSA); [22]): 8/4 | Fold Reduction (S. aureus 43300 (MRSA); [23]): 4/8

CC1(C)S[C@@H]2[C@H](NC(=O)[C@H](N)c3ccccc3)C(=O)N2[C@H]1C(=O)O [Ampicillin]
MIC of antibiotic (S. aureus USA100 (MRSA) [4]; +Loratadine 25 μM, MRSA USA100): 16 µg/mL | MIC of antibiotic (S. aureus USA100 (MRSA) [4]; +Loratadine 50 μM, MRSA USA100): 1/2 | Fold Reduction (S. aureus USA100 (MRSA) [4]; [11]): 2 | Fold Reduction (S. aureus USA100 (MRSA) [4]; [12]): 32/16 | MIC of antibiotic (S. aureus USA100 (MRSA) [4]; antibiotic alone, MRSA USA100): 32 µg/mL | MIC of antibiotic ([5]; +Loratadine 25 μM): 16 µg/mL | MIC of antibiotic ([5]; +Loratadine 50 μM): 4 µg/mL | Fold Reduction ([5]; +Loratadine 25 μM): 1 | Fold Reduction ([5]; +Loratadine 50 μM): 4 | MIC of antibiotic ([5]; antibiotic alone): 16 µg/mL | MIC of antibiotic (S. aureus USA300 (MRSA) [6]; +Loratadine 25 μM): 8 µg/mL | MIC of antibiotic (S. aureus USA300 (MRSA) [6]; +Loratadine 50 μM): 0.5 µg/mL | MIC of antibiotic (S. aureus USA300 (MRSA) [6]; antibiotic alone): 8 µg/mL | MIC of antibiotic (S. aureus 43300 (MRSA); [13]): 4 µg/mL | MIC of antibiotic (S. aureus 43300 (MRSA); +Loratadine 25 μM, MRSA 43300): 16/8 | MIC of antibiotic (S. aureus 43300 (MRSA); +Loratadine 50 μM, MRSA 43300): 1/2 | Fold Reduction (S. aureus 43300 (MRSA); [14]): 8 | Fold Reduction (S. aureus 43300 (MRSA); [15]): 1/2 | Fold Reduction (S. aureus 43300 (MRSA); [16]): 4 | MIC of antibiotic (S. aureus 43300 (MRSA); [17]): 32 µg/mL | MIC of antibiotic (S. aureus 43300 (MRSA); [18]): 16 µg/mL

CN1CCN(C2=Nc3ccccc3Oc3ccc(Cl)cc32)CC1 [Loxapine, 2-chloro-11-(4-methyl-1-piperazinyl)dibenz[b,f][1,4]oxazepine, reference compound]
MIC (S. aureus USA300 (MRSA) [1]; Staphylococcus aureus, compound alone, S. aureus USA300 (MRSA), CAMHB, read-out: MIC): 600 µM | MIC ([2]; Staphylococcus aureus, compound alone, S. aureus ATCC 43300 (MRSA), CAMHB, read-out: MIC): 600 µM | IC50 ([3]; Staphylococcus epidermidis, ATCC49461, 30 h): 270 µM | Fold Reduction (S. aureus 43300 (MRSA); [8]): 1 | Fold Reduction (S. aureus 43300 (MRSA); [9]): 4 | Oxacillin MIC (S. epidermidis 49461): 8 µg/mL | Fold Reduction (S. epidermidis 49461; oxacillin MIC): 2 | MIC (S. aureus ATCC 29213; ATCC29213, compound alone, S. aureus ATCC 29213, CAMHB, 18 h, read-out: MIC): 600 µM

c1ccc2c(c1)[nH]c1ccccc12 [IV-1]
MIC (S. aureus USA300 (MRSA) [1]; [19]): >200 µM | MIC [2, 10]: >200 µM | Oxacillin MIC (S. aureus USA100 (MRSA) [4]; [20]): 512 µg/mL | Fold Reduction (S. aureus USA100 (MRSA) [4]; [21]): 1 | MIC (S. aureus USA100 (MRSA) [7]): >200 µM | Oxacillin MIC (S. aureus USA300 (MRSA) [6]): 64 µg/mL | Fold Reduction (S. aureus USA300 (MRSA) [6]): 1 | Oxacillin MIC (S. aureus 43300 (MRSA); [22]): 32 µg/mL | Fold Reduction (S. aureus 43300 (MRSA); [23]): 1
